The text below walks through data of patent US20050171194A1, “Enlargement of mucocutaneous or cutaneous organs and sites with topical compositions” (priority 2003, published 2005).

Where “and” joins values, the source holds several entries; their conditions need not be identical. Equal values may be shown once. Read-outs that look alike come from different tables or passages of the source.

The subject of one experiment is forearm skin. Nature of the experiment: Forearm skin thickness measured by micrometer calipers after topical application. In kind it is in vivo, human. To be noted: for % Increase Over (summary of increased skin thickness): 10-35% concentration twice daily on forearm skin, range over 2-13 subjects. An excerpt: Measuring the increase in thickness of the skin was accomplished in accordance with the following procedures. The increased plumpness or skin thickness by topical application of active ingredients of the embodiments is mainly due to increased biosynthesis of dermal components in the skin. The three most important dermal components are glycosaminoglycans (GAGs), collagens and elastic fibers. The increased skin thickness caused by increased biosynthesis of dermal components can be distinguished from that by water retention or edema formation. In the former case, the skin remains thickened for weeks and months after termination of topical application. In the latter case, the increased skin thickness returns to the original skin thickness within days after termination of topical application. • (1) Forearm Skin
The most convenient body area for testing skin thickness is the forearm skin. For example, a test substance in a formulation was topically applied once or twice daily to left or right forearm for 3 to 6 months and the other forearm was untreated or treated with a vehicle control. The skin plumpness or thickness was measured by micrometer calipers as follows. The skin was grasped with a 2×6 cm hinge plate, the internal faces of the hinge were coated with soft cloth to prevent slippage, and manually squeezed to a threshold point when the subject felt tight. Combined skin thickness of two whole-skin layers including thickness of the two hinge leaves was measured with micrometer calipers. Thickness of the two hinge leaves was subtracted to determine the actual thickness of two whole-skin layers. Triplicate measurements on treated site were done and an average number was used for calculation of the skin thickness. […]
Hydroxycarboxylic acids, N-acyl-aldosamines, N-acylamino acids and related compounds at various concentrations were topically applied to forearms of volunteer subjects or patients. As shown in Tables 1-7, the skin plumpness or thickness was increased substantially by the compounds of the present invention. The increased skin thickness was believed to be due to increased biosynthesis of GAGs, collagen and elastic fibers. […]. From the above test results, hydroxycarboxylic acids, N-acyl-aldosamines, N-acylamino acids and related compounds used alone or in combination should be beneficial to plump and pout lips, enhance and firm eyelids, enlarge and augment breasts, elongate and expand penis.
In one of the studies, skin thickness was measured by micrometer calipers as follows: The skin was grasped with a 2×6 cm metal hinge; the internal faces of which were coated with emery cloth to prevent slippage, and manually squeezed to threshold subject discomfort. Combined thickness of two whole-skin layers including thickness of the two hinge leaves was measured with micrometer calipers. Thickness of the two hinge leaves was subtracted to determine the actual thickness of two whole-skin layers. Triplicate measurements on treated sites were conducted and an average number was used for calculation of the skin thickness.

Another experiment deals with breasts. Nature of the experiment: Breast enlargement after topical application, clinical evaluation and brassiere cup. In kind it is in vivo, human. On the procedure:
A test formulation containing a hydroxycarboxylic acid, N-acyl-aldosamine, N-acylamino acid or related compound was topically applied once or twice daily to skin or mucus membrane organs or sites such as lips, eyelids, breasts and penis for one to six months. Increased fullness, volume, contour or the effect of enlarging, expanding, augmenting, enhancing, firming, pouting, plumping or elongating after topical application was measured or determined by clinical as well as photographic evaluations. One of the measurements for breast enlargement or augmentation was by the size of brassiere cup. After topical application of the active ingredient, the subject would feel fullness or greater tightness of their treated breast with increased volume and contour, and there was a need to change and increase the size of the brassiere cup. Thus the enlargement or augmentation of the breast was determined by clinical as well as the increased size of brassiere cup.
A subject, applied topically twice daily gluconolactone 15% lotion to their right breast for 3 months. […] At this time, they began treating both breasts. […]

Experiment [1] is described as follows: Banana peel air oxidation test (antioxidant property). To be noted: 0.1 M, 5 ml, room temperature. An excerpt:
(§1) An antioxidant can be defined as a substance capable of preventing or inhibiting oxidation. The antioxidant property can be readily determined by using any one of the following test methods: prevention or retardation of air oxidation of (a) anthralin, (b) hydroquinone, or (c) banana peel. A freshly prepared anthralin solution or cream is bright yellow, and an air oxidized one is brownish or black. A hydroquinone solution or cream is colorless or white color, and an air oxidized one is brownish or black. A freshly peeled banana peel is light yellow in color and an oxidized one ranges in color from tan, dark tan, brown to brownish black.

Experiment [2] in a line: Antioxidant screen tests: air oxidation of anthralin and hydroquinone.
Source text: as §1

Another experiment relates to penis. Kind of experiment: Direct augmentation of penis, penile circumference by tape measure. In kind it is in vivo, human. To be noted: 20% solution two to three times daily for six weeks, person. The method, then:
The plumping, pouting or firming effects on lips and eyelids by topical application of an hydroxycarboxylic acid, N-acyl-aldosamine, N-acylamino acid or related compound was determined by clinical as well as photographic evaluation. The elongation or expanding effect of penis was determined by direct measurement of penis before and after once or twice daily topical application of an hydroxycarboxylic acid, N-acyl-aldosamine, N-acylamino acid or related compound. • (C) Antioxidants
One test on direct augmentation of penis was carried out as follows. Lactobionic acid 20% solution was prepared by dissolving lactobionic acid 20 g in water 50 ml and propylene glycol 30 ml. A subject, volunteered to test an active ingredient of the present invention to enhance penile enlargement. Each morning for one week prior to treatment penile circumference was measured. Measurements were made with a cloth tailor's tape measure. Penile circumference of the glans region, which included the covering foreskin, ranged from 9.5 cm to 10.5 cm. The above lactobionic acid 20% solution was topically applied two to three times daily on the glans penis including the covering foreskin region for six weeks. Morning measurements were again made daily for one week after treatment was stopped. Penile circumference ranged from 11.5 cm to 13 cm after six weeks of topical treatment with 20% lactobionic acid solution.

The test system of a further experiment is eyelids, lips, skin. Kind of experiment: Plumping or firming of eyelids, lips and skin, clinical and photographic evaluation. It is filed as in vivo, human. The method, then: Standard photographs were taken before and after topical applications of test formulations. Plumping or firming effect was determined by clinical as well as photographic evaluation. It was discovered that hydroxycarboxylic acids, N-acyl-aldosamines, N-acylamino acids and related compounds had substantial effect on plumping or firming the eyelids. Aside from clinical as well as photographic evaluation, eyelids plumping or firming also was determined from the disappearance of certain skin lines on the eyelids skin. When eyelids skin was plumping up, the eyelids skin firmed up or pulled up, and the skin lines became less apparent or disappeared. Therefore, when the skin lines on the eyelids disappeared after topical application of a test formulation, the test substance was judged to have plumping or firming effect on the eyelids. It also was discovered that hydroxycarboxylic acids, N-acyl-aldosamines, N-acylamino acids and related compounds on topical application had firming or plumping up effects on the eyelids skin. […] Increased fullness, volume, contour or the effect of enlarging, expanding, augmenting, enhancing, firming, pouting, plumping or elongating after topical application was measured or determined by clinical as well as photographic evaluations. One of the measurements for breast enlargement or augmentation was by the size of brassiere cup. After topical application of the active ingredient, the subject would feel fullness or greater tightness of their treated breast with increased volume and contour, and there was a need to change and increase the size of the brassiere cup. Thus the enlargement or augmentation of the breast was determined by clinical as well as the increased size of brassiere cup. The plumping, pouting or firming effects on lips and eyelids by topical application of an hydroxycarboxylic acid, N-acyl-aldosamine, N-acylamino acid or related compound was determined by clinical as well as photographic evaluation. The elongation or expanding effect of penis was determined by direct measurement of penis before and after once or twice daily topical application of an hydroxycarboxylic acid, N-acyl-aldosamine, N-acylamino acid or related compound. • (C) Antioxidants

The mark [3] stands for this setting: anthralin, hydroquinone or banana peel air oxidation.
Setting [4] is: 14% cream twice daily, person, after two months.

As to `CC(O)C(=O)O` (racemic) [DL-Lactic Acid, 2-hydroxypropanoic acid], the “% Increase Over (summary of increased skin thickness)” value in the experiment with forearm skin was 17-42%.

Regarding `O=C(O)C(O)c1ccccc1` (racemic) [DL-Mandelic Acid, 2-henyl-2-hydroxyethanoic acid], the “% Increase Over (summary of increased skin thickness)” value in the experiment with forearm skin was 22-27%. Moreover, the “% Increase Over Control (skin thickness)” value with forearm skin (30% solution, twice daily on forearm skin, 4 months, control = opposite forearm, one subject) was 22% and 27%.

With `CC(=O)NC1CCSC1=O` (racemic) [N-Acetyl-DL-homocysteine Thiolactone], the “% Increase Over Control (%) (skin thickness)” value in the experiment with forearm skin (5% lotion, twice daily on forearm skin, 3 weeks, control = opposite forearm, one subject) was 13% and 65%.

`O=C1O[C@H](CO)[C@@H](O)[C@H](O)[C@H]1O` [D-Gluconolactone]: the “% Increase Over (summary of increased skin thickness)” value in the experiment on forearm skin was 7-19%. Moreover, the “size of treated right breast” value with breasts (15% lotion twice daily, person, after 6 weeks, untreated left breast no change) was “noticeable increase in the size of their right breast”. The “plumpness and firmness of treated right breast compared to left breast” value in the experiment with breasts (15% lotion twice daily, person, at the end of 3 months) was “increased in plumpness and firmness”. For the same compound, the “plumpness and firmness of both breasts” value with breasts (15% lotion, both breasts treated, at the end of another 3 months (6 month treatment period)) was “substantially increased in plumpness and firmness”.

For the compound `O=C(O)CO` [Glycolic Acid, 2-hydroxyethanoic acid], the “% Increase Over (summary of increased skin thickness)” value in the experiment with forearm skin was 11-43%.

As to `O=C(O)[C@H](O)[C@@H](O)[C@H](O[C@@H]1O[C@H](CO)[C@H](O)[C@H](O)[C@H]1O)[C@H](O)CO` [Lactobionic Acid, lactobionic acid], the “% Increase Over (summary of increased skin thickness)” value in the experiment with forearm skin is 5-58%. Further, the “% Increase Over Control (%) (skin thickness)” value in the experiment with forearm skin (Conc. 8%, twice daily on forearm skin, 3 months, control = opposite forearm, subject) worked out at 26%; in the experiment with forearm skin (Conc. 20%, twice daily on forearm skin, 4 months, control = opposite forearm, subject), 10%. Further, the “color of fresh banana peels” value in experiment [1] (after 72 hours, control in water dark tan at 24 to 72 hours) is “changed in color to tan”; in experiment [1] (period of 24 hours, control in water tan within 6 hours), “remained white-yellowish”. In experiment [2], the “antioxidant property by anthralin and hydroquinone test methods” value is “moderate antioxidant”. The “glans penile augmentation and foreskin thickness (in words)” value in the experiment with penis is “glans penile augmentation had occurred, as well as increased thickness of foreskin”.

`O=C(O)[C@H](O)[C@@H](O)[C@H](O[C@@H]1O[C@H](CO)[C@H](O)[C@H](O)[C@H]1O)[C@H](O)CO` [Maltobionic acid, maltobionic acid]: in the experiment with eyelids, lips, skin (20% solution twice daily applied prior to continued glyceric acid 14% cream, same subject, after five weeks), the “skin fullness and plumping” value is “marked enhancement of skin fullness and plumping”.

Take `CC(C)(O)C(=O)O` [Methyllactic Acid, 2-methyl-2-hydroxypropanoic acid]: the “% Increase Over (summary of increased skin thickness)” value with forearm skin was 14-20%.

For the compound `CC(=O)N[C@@H](CS)C(=O)O` [N-Acetyl-L-cysteine], in experiment [2] (setting [3]), the “antioxidant properties based on the screen tests” value (from here on “antioxidant properties based”) is recorded as “antioxidant substances”.

Consider `CCC(=O)N[C@H]1C(O)O[C@H](CO)[C@@H](O)[C@@H]1O` (stereo partly drawn) [N-Propanoyl-D-glucosamine], for which the “appearance of treated forearm skin when lifted” value with forearm skin (10% solution twice daily, at the end of treatment (6 to 9 weeks), untreated forearm still loose and relatively thin) was “more firm, smooth and plump when lifted”. Also, the “increase in skin thickness of treated forearm” value in the experiment with forearm skin (10% solution twice daily, person one, after 4 weeks, untreated forearm no change) stood at 8%; with forearm skin (10% solution twice daily, person one, after 6 weeks, untreated forearm no change) it was 23%; with forearm skin (10% solution twice daily, person one, after 9 weeks, untreated forearm no change), 28%; in the experiment with forearm skin (10% solution twice daily, person two, after 4 weeks, untreated forearm no change), 13%; with forearm skin (10% solution twice daily, person two, after 6 weeks), 27%; with forearm skin (10% solution twice daily, person, after 5 weeks, untreated forearm no change) it was 19%. Besides, the “increase in skin thickness of treated forearm” value with forearm skin (10% solution twice daily, person, after 8 weeks) is on record as 33%.

As for `O=C(O)c1ccccc1O` [Salicylic Acid, 2-hydroxybenzoic acid, reference compound], the “effect on skin plumpness or thickness (in words)” value with forearm skin (topical application on forearm skin) is reported as “decreased instead of increasing skin thickness”.

As for `O=C(O)C(O)CO` (stereo not drawn) [glyceric acid, 2,3-dihydroxypropanoic acid], in the experiment with eyelids, lips, skin (setting [4]), the lips plumpness result is “more plump”; the plumping of skin entry is “plumping of skin was detectable”; the “skin of the upper arms appearance” value is given as “diminished crepe paper appearance”; the “upper eyelids droop and fullness” value is “diminished droop and enhanced fullness”.

As for `O=C1O[C@H]([C@H](O)CO)C(O)=C1O` [isoascorbic acid, D-erythro-hex-2-enonic acidr-lactone], the “antioxidant properties based” value in experiment [2] (setting [3]) is listed as “antioxidant substances”.

`O=C(O)CC(C(=O)O)C(O)C(=O)O` (stereo not drawn) [isocitric acid]: the “antioxidant properties based” value in experiment [2] is “antioxidant substances”.

In the case of `O=C(O)CC(O)C(=O)O` (stereo not drawn) [malic acid, 2-hydroxybutane-1,4-dioic acid], the “antioxidant properties based” value in experiment [2] (setting [3]) was “antioxidant substances”.

For the compound `CC1(C)COC(=O)C1O` (stereo not drawn) [pantolactone], the “antioxidant properties based” value in experiment [2] (setting [3]) was “antioxidant substances”.
